Experiment [1] deals with human skin fibroblasts. Description: High-throughput cell migration assay (Oris Pro Cell Migration Assay plate) / standardized viability. It is filed as cell-based. The note with it: Table 1; HTS of FDA Drug Library. The source says:
Mouse MSC carrying Npas2-LacZ reporter gene, as described by Hassan N, et al., PLoS One. 2017; 12(8):e0183359, which is incorporated by reference herein in its entirety, was immortalized using SV40 in order to accommodate a large-scale HTS. […] This cell system was used to screen FDA Approved Drug Library (1120 compounds). The same library was also screened for cell viability by Calcein AM Hoechst 33342 staining Cell migration assays using the Oris™ Pro Cell Migration Assay plate, as described by Joy M E et al., PloS one. 2014; 9(2):e88350, which is incorporated by reference herein in its entirety, was used for a high-throughput migration assay using human skin fibroblasts
The combined Z score was used to identify hit compounds (Table 1).

Experiment [2] relates to osteocalcin (Ocn), osteopontin (Opn), Bmal1 expression. Description: Real time RT-PCR of osteogenic and clock genes in BMSC (MSC). The experiment is classed as cell-based, mouse. The source says:
FIGS. 7A-7B show the effect of Reserpine on bone marrow stromal cells osteogenic differentiation. […] Bars: Tukey analysis with p<0.05. […] The expression values were normalized with day 0 RNA.
FIGS. 11A-11D(b) show results of in vitro biological assays of Npas2 suppressing compound Dwn1 (Reserpine).
Reserpine was selected and its effect on bone marrow stromal cells (BMSC) was characterized for osteogenic differentiation.
The small molecule compound that scored the best combined z score in Example 2, Dwn1 (Reserpine) was selected for in vitro biological assays. […] BMP-2 has been used as a gold standard for accelerated osteogenic differentiation of MSC (48, 49). […] The expression of core clock gene Bmal1 was not affected by Dwn1 (FIG. 11C). Dwn1 increased in vitro mineralization of Npas2+/− MSC, but not of Npas2−/− MSC (FIG. 11D), implying that the effect of Dwn1 (Reserpine) was facilitated primarily by Npas2 suppression.

The subject of experiment [3] is skin split wound. Description: Skin split (linear) wound/scar model with suture. It is filed as in vivo, mouse. The following applies: Dwn1 in 10% DMSO with suture vs suture only and suture plus vehicle. The source says: To test in vivo wound healing using Dwn1, a 1.5 by 10 millimeter skin split model was created with a suture in the middle and three groups were designed. This model is similar to a clinical situation of a skin wound. When the skin was sutured only, visible wound healing was not effective. A suture and vehicle control with 10% DMSO, in the clinical observation, wound healing was visibly better than suture only. It is hypothesized that the moisture of vehicle may improve wound healing.
Masson trichrome staining was used to stain collagen deposition blue. Thick blue collagen deposition was found not only in granulation tissue but also in the peripheral wound. The histological staining for the vehicle control with 10% DMSO, was similar to control. Thick collagen deposition was observed.
Vertical wounds (10×1.5 mm) were made on both left and right sides of the back of a mouse with a double-bladed scalpel. One ligation was performed at the center of the wound with 5-0 nylon suture. (FIG. 33A) Visual Analogue Scale (VAS) was scored everyday postoperatively until postoperative day 7 using gross images of the wounds/scars (FIG. 33A), and postoperative gross images of the wounds/scars were measured with a ruler. […] (FIG. 33D) Scar Index was evaluated using HE stained slices. (FIG. 33E) The % area of fibrous tissue was evaluated using MT stained slices. […]

Entries after “also recorded” stand apart in the source; their conditions may differ.

This note sets out measurements from patent US20230013402A1, “REGENERATING FUNCTIONS AND PHENOTYPES OF CONNECTIVE TISSUE THROUGH NPAS2 SUPPRESSION” (The Regents of the University of California, priority 2019, published 2023).

`COC(=O)[C@H]1[C@H]2C[C@@H]3c4[nH]c5cc(OC)ccc5c4CCN3C[C@H]2C[C@@H](OC(=O)c2cc(OC)c(OC)c(OC)c2)[C@@H]1OC` [Reserpine]: the “Migration (standardized viability) Z Score” value in experiment [1] was found to be 4.19. Further, in experiment [2] (MSC, listed as Dwn1), the “Expression of core clock gene Bmal1” value is reported as “did not affect; also recorded: not affected”. Besides, in experiment [2] (day 21), the “Expression of osteocalcin (Ocn)” value is given as “significantly increased” and the “Expression of osteopontin (Opn)” value was “mildly affected”. The “Expression of osteocalcin (Ocn)” value in experiment [2] (day 21, listed as Dwn1) is listed as “increased as early as D21; also recorded: accelerated expression”. Further, in experiment [3], the “Collagen deposition (Masson trichrome staining)” value is listed as “decreased excessive collage deposition; also recorded: very small area of collagen deposition” and the “Split wound healing / scarring” value is “improved split wound healing with minimal scarring; also recorded: best wound healing”.
